In PMC6990646 (ACS Omega, 2020):
In brackets after ≈: the same amount, converted by molar mass. Several values for one entry are separate records, joined by “and”; a condition that tells them apart may be missing. Equal entries are not always repeated.

Columns and labels:
Vero cell line = experiment: Cytotoxicity test on Vero cell line; format: cell-based; settings: herpes simplex virus table; host cells Vero
[1] = test system: ED-43/SG-Feo (VYG) replicon of HCV genotype 4a; experiment: Antiviral bioassay against ED-43/SG-Feo; format: cell-based
HAdV7 = experiment: Plaque reduction assay against adenovirus 7; format: cell-based, human adenovirus type 7
Hep2 cell line = experiment: Cytotoxicity test on Hep2 cell line; format: cell-based; settings: adenovirus type 7 columns; host cells Hep-2
Huh 7.5 cell line = experiment: Cytotoxicity test on Huh 7.5 cell line; format: cell-based; settings: HCVcc genotype 4 columns; host cells Huh 7.5
HAV HM175 = experiment: Plaque reduction assay against HAV HM175; format: cell-based, hepatitis A virus HM 175; settings: hepatitis A virus HM 175, plaque reduction
FRHK-4 cell line = experiment: Cytotoxicity test on FRHK-4 cell line; format: cell-based; settings: hepatitis A virus HM 175 columns; host cells FRHK4

With `O=C(CNc1nc(NS(=O)(=O)c2ccccc2)ncc1-c1nc2ccccc2s1)c1ccc(Br)cc1` [9a, N-(5-(Benzo[d]thiazol-2-yl)-4-((2-(4-bromophenyl)-2-oxoethyl)amino)pyrimidin-2-yl)benzenesulfonamide] the CC50 (Vero cell line) was 270 µg/mL (≈ 465 µM), the IC50 ([1]; HCVcc genotype 4) was 120 µg/mL (≈ 207 µM) and the “mean % of reduction, HCVcc genotype 4” value ([1]; nontoxic dose of compound) was 50 ± 0.9%. The IC50 (HAdV7; adenovirus type 7, plaque reduction) was 120 µg/mL (≈ 207 µM), the “mean % of reduction, adenovirus type 7” value (HAdV7; nontoxic dose of compound) was 50 ± 0.9% and the CC50 (Hep2 cell line) was 260 µg/mL (≈ 448 µM). The IC50 (HSV-1; herpes simplex virus, plaque reduction) was 63 µg/mL (≈ 109 µM), the “mean % of reduction, herpes simplex virus” value (HSV-1; nontoxic dose of compound) was 90% and 90 ± 2.5% and the CC50 (Huh 7.5 cell line) was 250 µg/mL (≈ 431 µM). It also gave an IC50 (HAV HM175) of 78 µg/mL (≈ 134 µM) and a CC50 (FRHK-4 cell line) of 240 µg/mL (≈ 413 µM).
